Measured values as given in ChEMBL document CHEMBL1201862, “PubChem BioAssay data set” (2004).
Active and inactive are the calls of the source.

Tests used:
[1] = target: Steroidogenic factor 1 (Homo sapiens, UniProt Q13285); test: Counterscreen for inverse agonists of the liver receptor homolog-1 (LRH-1; NR5A2): Luminescence-based cell-based high throughput dose response assay to identify inverse agonists of the Steroidogenic Factor 1 Nuclear Receptor (SF1; NR5A1).; format: functional
[2] = nonselective StAR promoter luciferase inhibitors – cell-based, luminescence, luciferase reporter, counter-screen for LRH-1 inverse agonist project, dose response (AID 651969); format: functional
[3] = target: Nuclear receptor subfamily 5 group A member 2 (Homo sapiens, UniProt O00482); format: functional, cell-based;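 further: HEK293T cells transfected with LRH-1 and a StAR promoter luciferase reporter; potency for inhibitors that lower LRH-1 driven reporter light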
Nuclear receptor subfamily 5 group A member 2, sequence (O00482 whole entry): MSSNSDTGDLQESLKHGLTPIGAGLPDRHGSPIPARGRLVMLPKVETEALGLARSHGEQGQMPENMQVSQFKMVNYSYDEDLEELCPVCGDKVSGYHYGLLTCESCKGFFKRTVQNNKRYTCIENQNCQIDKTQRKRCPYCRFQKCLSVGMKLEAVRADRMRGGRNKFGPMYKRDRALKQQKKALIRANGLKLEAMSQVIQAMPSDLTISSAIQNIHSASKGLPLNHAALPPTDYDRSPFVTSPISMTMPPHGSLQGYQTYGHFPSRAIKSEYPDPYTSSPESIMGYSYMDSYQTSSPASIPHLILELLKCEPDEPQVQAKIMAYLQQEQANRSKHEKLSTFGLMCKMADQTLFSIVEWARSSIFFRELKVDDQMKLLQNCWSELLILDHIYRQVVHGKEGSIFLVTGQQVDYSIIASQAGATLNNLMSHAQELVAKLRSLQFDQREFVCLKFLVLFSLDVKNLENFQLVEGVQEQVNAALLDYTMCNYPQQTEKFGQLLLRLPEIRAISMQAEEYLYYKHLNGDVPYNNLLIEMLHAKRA

[4] = bead-based luminescence quenchers, dual-tagged ARNT – biochemical, AlphaScreen, cherry-pick, artefact control for ARNT-TACC3 interaction inhibitor project, dose response (AID 651705); format: functional;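 further: AlphaScreen bead proximity signal that flags compounds interfering with the detection technology; potency reflects signal decrease which marks the compound as an assay artifact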
[5] = target: Low molecular weight phosphotyrosine protein phosphatase (Homo sapiens, UniProt P24666); format: functional; details: read-out: IC50_Mean;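 further: Dose-response confirmation assay measuring inhibition of LMPTP enzyme activity by fluorescence intensity read-out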
Low molecular weight phosphotyrosine protein phosphatase, sequence (P24666 whole entry): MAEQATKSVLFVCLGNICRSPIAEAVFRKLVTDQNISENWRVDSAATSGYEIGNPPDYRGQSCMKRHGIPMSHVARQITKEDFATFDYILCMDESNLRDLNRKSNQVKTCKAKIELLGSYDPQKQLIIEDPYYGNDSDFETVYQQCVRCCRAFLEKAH

[6] = target: T1, Dual specificity protein phosphatase 6 (Rattus norvegicus, UniProt Q64346); test: inhibition of rat DUSP6 enzyme activity – biochemical, in vitro, primary screen (AID 425)
T1 sequence (Q64346 whole entry): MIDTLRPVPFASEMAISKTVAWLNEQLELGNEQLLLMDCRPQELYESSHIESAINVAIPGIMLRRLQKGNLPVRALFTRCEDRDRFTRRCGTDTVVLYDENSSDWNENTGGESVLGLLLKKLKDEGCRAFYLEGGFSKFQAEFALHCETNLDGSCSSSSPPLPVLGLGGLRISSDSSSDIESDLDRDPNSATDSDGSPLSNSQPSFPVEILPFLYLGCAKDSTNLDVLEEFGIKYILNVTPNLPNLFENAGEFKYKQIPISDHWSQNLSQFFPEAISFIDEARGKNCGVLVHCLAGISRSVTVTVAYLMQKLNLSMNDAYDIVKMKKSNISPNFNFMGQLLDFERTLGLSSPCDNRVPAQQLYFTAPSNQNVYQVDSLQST

[7] = target: T2, Interleukin-8 (Homo sapiens, UniProt P10145); test: Dose Response confirmation of uHTS small molecule hits for cystic fibrosis induced NFkb Inhibitors in a PAF-induced IL8 counterscreen.; format: functional; details: read-out: IC50_Mean
T2 sequence (P10145 whole entry): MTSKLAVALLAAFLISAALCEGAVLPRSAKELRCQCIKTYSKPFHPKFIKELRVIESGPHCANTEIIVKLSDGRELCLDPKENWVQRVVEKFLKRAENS

[8] = target: T2, Interleukin-8; test: Dose Response confirmation of uHTS small molecule hits for cystic fibrosis induced NFkb Inhibitors in a TNFa-induced IL8 counterscreen.; format: functional; details: read-out: IC50_Mean
[9] = Trypanosoma cruzi growth suppression in host cells – NIH3T3 host cells, beta-gal luminescence, confirmation (AID 2044); format: functional, cell-based;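 further: intracellular parasites grown in NIH/3T3 mouse fibroblasts as host cells; luminescent beta-galactosidase reporter signal from transgenic T. cruzi replicating inside host cells; inhibitors lower the luminescence signal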
[10] = target: Melanocortin receptor 4 (Homo sapiens, UniProt P32245); format: functional, cell-based;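 further: Cell-based assay with luminescence read-out, confirmatory dose-response testing for agonist activity of biased ligands at MC4R; human U2OS cells with tagged receptor and beta-arrestin; potency of agonists that increase receptor coupling to beta-arrestin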
Melanocortin receptor 4, sequence (P32245 whole entry): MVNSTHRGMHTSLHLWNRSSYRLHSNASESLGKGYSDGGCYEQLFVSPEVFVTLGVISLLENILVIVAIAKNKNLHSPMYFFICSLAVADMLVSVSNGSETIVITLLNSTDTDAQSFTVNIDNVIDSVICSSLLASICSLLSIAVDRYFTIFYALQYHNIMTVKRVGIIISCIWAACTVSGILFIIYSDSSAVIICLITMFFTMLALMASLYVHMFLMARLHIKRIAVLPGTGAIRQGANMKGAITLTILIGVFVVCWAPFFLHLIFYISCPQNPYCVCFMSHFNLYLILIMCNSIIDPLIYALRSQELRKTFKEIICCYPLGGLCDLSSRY

[11] = target: T3, Heat shock factor protein 1 (Mus musculus, UniProt P38532); test: enhancement of HSF1-driven luciferase signal – cell-based, NIH3T3, luminescence, dose retest, confirmation (AID 435004); format: functional;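 further: stress induced by proteasome inhibitor MG132 added 30 min after compound; luciferase reporter driven by HSF1 response element in NIH3T3 cells; actives raise luminescence as potentiators of the MG132 stress response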
T3 sequence (P38532 whole entry): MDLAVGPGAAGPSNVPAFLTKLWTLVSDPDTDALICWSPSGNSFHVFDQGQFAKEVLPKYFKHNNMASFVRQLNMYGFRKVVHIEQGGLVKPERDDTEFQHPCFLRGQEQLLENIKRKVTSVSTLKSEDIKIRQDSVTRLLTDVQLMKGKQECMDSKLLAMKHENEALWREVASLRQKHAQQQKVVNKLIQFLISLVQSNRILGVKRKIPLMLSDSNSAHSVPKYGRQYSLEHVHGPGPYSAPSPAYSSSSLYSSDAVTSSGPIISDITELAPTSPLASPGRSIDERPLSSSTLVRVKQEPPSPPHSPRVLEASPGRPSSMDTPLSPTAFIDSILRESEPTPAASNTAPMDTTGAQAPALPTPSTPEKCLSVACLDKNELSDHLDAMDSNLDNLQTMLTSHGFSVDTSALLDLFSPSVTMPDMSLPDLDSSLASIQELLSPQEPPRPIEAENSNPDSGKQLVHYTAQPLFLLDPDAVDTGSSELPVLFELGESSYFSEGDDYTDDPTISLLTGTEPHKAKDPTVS

[12] = target: T4, X-box-binding protein 1 (Homo sapiens, UniProt P17861); format: functional, Cricetulus griseus;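 further: confirmatory dose-response counter-screen serving a CHOP assay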
T4 sequence (P17861 whole entry): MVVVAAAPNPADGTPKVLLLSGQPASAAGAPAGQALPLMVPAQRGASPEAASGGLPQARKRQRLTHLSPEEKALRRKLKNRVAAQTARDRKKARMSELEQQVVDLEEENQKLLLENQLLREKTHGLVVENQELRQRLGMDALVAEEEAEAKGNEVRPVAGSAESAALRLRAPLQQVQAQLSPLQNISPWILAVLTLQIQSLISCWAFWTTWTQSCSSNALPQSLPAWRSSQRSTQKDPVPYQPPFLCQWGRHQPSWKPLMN

[13] = NIH3T3 cell viability loss – ATP luminescence, mouse fibroblasts, counter-screen, dose response (AID 2010); format: functional, cell-based;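 further: cells exposed to compound for about 90 hours before reading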
[14] = target: T5, Apoptotic protease-activating factor 1 (Homo sapiens, UniProt O14727); test: SAR analysis of small molecule Activators of Apaf-1 in a Fluorescent assay.; format: functional; details: read-out: EC50_Mean;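 further: caspase-3 cleavage of fluorogenic Rh110 DEVD substrate downstream of apoptosome activation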
T5 sequence (O14727 whole entry): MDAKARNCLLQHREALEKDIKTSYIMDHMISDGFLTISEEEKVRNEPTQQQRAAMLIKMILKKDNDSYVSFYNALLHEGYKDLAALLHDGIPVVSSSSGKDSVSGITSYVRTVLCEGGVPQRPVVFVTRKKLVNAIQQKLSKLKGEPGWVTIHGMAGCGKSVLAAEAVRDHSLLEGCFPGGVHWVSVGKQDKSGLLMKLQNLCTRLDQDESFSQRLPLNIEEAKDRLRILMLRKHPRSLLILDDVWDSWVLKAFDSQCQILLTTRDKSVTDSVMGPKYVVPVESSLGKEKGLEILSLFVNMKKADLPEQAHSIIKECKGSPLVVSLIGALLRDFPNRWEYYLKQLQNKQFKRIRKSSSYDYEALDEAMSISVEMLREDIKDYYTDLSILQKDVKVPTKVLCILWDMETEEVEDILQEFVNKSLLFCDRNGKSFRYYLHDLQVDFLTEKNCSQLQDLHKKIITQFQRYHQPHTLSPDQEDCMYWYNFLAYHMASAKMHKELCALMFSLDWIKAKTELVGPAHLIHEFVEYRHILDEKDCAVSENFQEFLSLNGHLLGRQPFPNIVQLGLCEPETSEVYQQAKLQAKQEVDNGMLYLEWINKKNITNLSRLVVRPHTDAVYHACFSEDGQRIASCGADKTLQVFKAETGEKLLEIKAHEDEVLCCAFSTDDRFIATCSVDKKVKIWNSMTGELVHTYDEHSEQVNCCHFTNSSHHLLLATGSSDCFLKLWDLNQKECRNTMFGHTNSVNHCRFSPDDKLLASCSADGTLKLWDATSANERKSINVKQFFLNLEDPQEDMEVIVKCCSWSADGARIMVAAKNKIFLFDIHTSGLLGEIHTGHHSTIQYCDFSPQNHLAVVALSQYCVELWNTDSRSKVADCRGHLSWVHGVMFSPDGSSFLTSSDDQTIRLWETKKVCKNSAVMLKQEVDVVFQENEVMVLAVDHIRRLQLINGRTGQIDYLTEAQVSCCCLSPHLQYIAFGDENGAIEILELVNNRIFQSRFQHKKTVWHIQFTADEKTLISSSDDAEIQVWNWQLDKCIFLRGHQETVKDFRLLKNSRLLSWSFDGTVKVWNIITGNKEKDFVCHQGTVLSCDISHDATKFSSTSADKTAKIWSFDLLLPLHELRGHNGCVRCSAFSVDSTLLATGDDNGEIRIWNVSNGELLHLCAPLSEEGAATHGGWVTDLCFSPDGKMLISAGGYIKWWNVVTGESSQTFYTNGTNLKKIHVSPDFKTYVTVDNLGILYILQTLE

[15] = activation of miR-122 Renilla sensor silencing – cell-based, Huh7 psiCHECK-miR122, Renilla luciferase, cherry-picked, dose response (AID 651956); format: functional;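 further: huh7 hepatoma cells stably carrying a psiCHECK-2 miR-122 sensor plasmid; renilla luciferase signal reporting endogenous miR-122 activity after 48 h compound exposure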
[16] = target: Paired box protein Pax-8 (Homo sapiens, UniProt Q06710); test: PAX8 transcriptional activity inhibition in RMG-I – RMG-I cells, luciferase, cherry-pick, dose response (AID 687027); format: functional, cell-based;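 further: luciferase reporter driven by Pax8 target thyroperoxidase promoter measured by SteadyGlo luminescence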
Paired box protein Pax-8, sequence (Q06710 whole entry): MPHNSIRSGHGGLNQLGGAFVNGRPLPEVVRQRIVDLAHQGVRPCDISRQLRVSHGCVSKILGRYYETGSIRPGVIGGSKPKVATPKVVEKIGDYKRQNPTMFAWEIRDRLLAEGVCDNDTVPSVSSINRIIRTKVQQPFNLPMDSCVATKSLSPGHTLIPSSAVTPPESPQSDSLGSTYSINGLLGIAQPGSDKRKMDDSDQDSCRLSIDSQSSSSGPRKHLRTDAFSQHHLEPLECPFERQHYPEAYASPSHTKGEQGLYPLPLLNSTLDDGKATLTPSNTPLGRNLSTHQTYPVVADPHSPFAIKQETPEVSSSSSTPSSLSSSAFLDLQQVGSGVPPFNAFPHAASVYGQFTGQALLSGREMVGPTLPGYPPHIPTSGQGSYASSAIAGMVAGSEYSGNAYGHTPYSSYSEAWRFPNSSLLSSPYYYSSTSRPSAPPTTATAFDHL

Steroidogenic factor 1, sequence (Q13285 whole entry): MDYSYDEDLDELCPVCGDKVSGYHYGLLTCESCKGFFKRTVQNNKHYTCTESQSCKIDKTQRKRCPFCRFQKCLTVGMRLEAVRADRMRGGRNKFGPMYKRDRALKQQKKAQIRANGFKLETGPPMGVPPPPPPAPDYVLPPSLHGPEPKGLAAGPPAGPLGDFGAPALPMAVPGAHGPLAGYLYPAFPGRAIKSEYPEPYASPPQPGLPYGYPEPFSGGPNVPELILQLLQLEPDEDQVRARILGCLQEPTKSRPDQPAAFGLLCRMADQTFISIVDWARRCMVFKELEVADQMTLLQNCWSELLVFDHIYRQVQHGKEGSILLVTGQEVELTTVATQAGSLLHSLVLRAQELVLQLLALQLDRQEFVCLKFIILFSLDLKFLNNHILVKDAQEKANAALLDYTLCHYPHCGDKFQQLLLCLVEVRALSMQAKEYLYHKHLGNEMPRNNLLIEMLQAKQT

With `COc1ccc(CC(NC(C)=O)C(=O)NC2CCN(c3nnnn3-c3ccccc3)CC2)cc1` (stereo not given) the IC50 [1] was 11.3 µM (inactive), the IC50 [2] was 35.9 µM (inactive) and the IC50 [3] was 16.5 µM (inactive).
With `O=C(CSc1nc(=O)n2cc(Cl)ccc2n1)Nc1ccc2c(c1)OCCO2` the IC50 [1] was 35.9 µM (inactive), the IC50 [2] was 35.9 µM (inactive) and the IC50 [3] was 35.9 µM (inactive).
For `O=C(NCCCn1ccnc1)Nc1ccc(Cl)c(Cl)c1`, the AC50 [4] was 99 µM (active).
In the case of `CC(Nc1nc(-c2ccccc2F)nc2ccccc12)c1ccccc1` (stereo not given), the IC50 [5] is reported as 5.48 µM (active).
With `O=C(O)c1cnc2ccc(S(=O)(=O)N3CCN(c4ccc(F)cc4)CC3)cc2c1O` the IC50 [6] was > 10 µM (not active) and the IC50 [5] was 50.6 µM (inactive).
For `COc1ccc(-c2csc(NC3OC(=O)c4c3ccc(OC)c4OC)n2)cc1OC` (stereo not given), the IC50 [7] was 1.37 µM (active) and the IC50 [8] was 0.969 µM (active).
For `Cc1ccc(C2=NN(C(=O)c3cccs3)C(c3ccccc3O)C2)cc1` (stereo not given), the EC50 [9] was 2.49 µM (active), the EC50 [10] was > 89.2 µM (inactive) and the EC50 [11] was > 260 µM (inactive). The “Absolute IC50 (XBP1)” value [12] was 10 µM and the EC50 [13] was > 60 µM (not active).
With `COc1cc(-c2nnc(NC(=O)CS(=O)(=O)c3ccc(F)cc3)o2)cc(OC)c1OC` the AC50 [4] was 102 µM (active).
With `NC(c1ccccc1)c1csc(NC(=O)Nc2ccccc2Oc2ccccc2)n1` (stereo not given) the EC50 [10] was > 89.2 µM (inactive).
In the case of `Cc1ccc(N2C(=O)CC3(CC(c4ccc(Br)cc4)=NO3)C2=O)cc1` (stereo not given), the EC50 [14] is reported as > 100 µM (inactive).
In the case of `O=C(O)[C@@H]1COC(c2ccccc2C(F)(F)F)=N1`, the EC50 [14] is reported as > 100 µM (inactive).
With `COc1ccc(C#Cc2ccc3c(c2)O[C@H](CN(C)C(=O)CN2CCOCC2)[C@H](C)CN([C@@H](C)CO)S3(=O)=O)cc1` the AC50 [15] was 29.9 µM (active).
With `C=C1C(=O)O[C@@H]2[C@H]1CC[C@H](C)[C@]1(O)CCC(=O)[C@@]21C` [CORONOPILIN] the AC50 [16] was 5.43 µM (active), the IC50 [7] was 7.49 µM (active) and the IC50 [8] was 40.5 µM (inactive).
